Patent US10167284B2, “Spirocyclic compounds as agonists of the muscarinic M1 receptor and/or M4 receptor” (HEPTARES THERAPEUTICS LIMITED, priority 2015, dated 2019)

How the values were obtained:
[1] = target: T1, human muscarinic M1 receptor (Homo sapiens, UniProt P11229); assay: Alphascreen Surefire phospho-ERK1/2 functional assay, M1; type: cell-based; conditions: for EC50 / M1 % Emax cf. ACh: CHO cells stably expressing human M1; for EC50: phospho-ERK1/2, read-out: pEC50 M1 (converted); for Emax: CHO, read-out: M1 % Emax cf. ACh, CHO cells stably expressing human M1; for Emax / M1 % Emax cf. ACh: Emax relative to ACh
T1 construct: expressed in transfected cells
T1 sequence (P11229 1-460): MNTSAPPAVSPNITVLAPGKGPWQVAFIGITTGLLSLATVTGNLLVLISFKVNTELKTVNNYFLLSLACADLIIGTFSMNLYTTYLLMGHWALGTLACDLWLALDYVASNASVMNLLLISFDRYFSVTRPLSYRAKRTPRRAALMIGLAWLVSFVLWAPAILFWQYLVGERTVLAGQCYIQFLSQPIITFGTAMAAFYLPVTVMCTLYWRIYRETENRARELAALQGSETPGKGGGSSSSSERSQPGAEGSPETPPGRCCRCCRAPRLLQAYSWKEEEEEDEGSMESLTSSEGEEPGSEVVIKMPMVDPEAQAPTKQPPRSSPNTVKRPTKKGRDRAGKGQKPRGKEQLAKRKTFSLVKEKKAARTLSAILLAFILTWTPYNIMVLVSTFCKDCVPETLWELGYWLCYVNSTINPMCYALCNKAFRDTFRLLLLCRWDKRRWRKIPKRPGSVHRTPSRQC
Procedure: (§1) CHO cells stably expressing the human muscarinic M1, M2, M3 or M4 receptor were plated (25K/well) onto 96-well tissue culture plates in MEM-alpha+10% dialysed FBS. Once adhered, cells were serum-starved overnight. Agonist stimulation was performed by the addition of 5 μL agonist to the cells for 5 min (37° C.). Media was removed and 50 μL of lysis buffer added. After 15 min, a 4 μL sample was transferred to 384-well plate and 7 μL of detection mixture added. Plates were incubated for 2 h with gentle agitation in the dark and then read on a PHERAstar plate reader.
(§2) pEC50 and Emax figures were calculated from the resulting data for each receptor subtype.

[2] = target: T2, human muscarinic M4 receptor (Homo sapiens, UniProt P08173); assay: Alphascreen Surefire phospho-ERK1/2 functional assay, M4; type: cell-based; conditions: for EC50 / M4 % Emax cf. ACh: CHO cells stably expressing human M4; for EC50: phospho-ERK1/2, read-out: pEC50 M4 (converted); for Emax: CHO, read-out: M4 % Emax cf. ACh, CHO cells stably expressing human M4; for Emax / M4 % Emax cf. ACh: Emax relative to ACh
T2 construct: expressed in transfected cells
T2 sequence (P08173 1-479): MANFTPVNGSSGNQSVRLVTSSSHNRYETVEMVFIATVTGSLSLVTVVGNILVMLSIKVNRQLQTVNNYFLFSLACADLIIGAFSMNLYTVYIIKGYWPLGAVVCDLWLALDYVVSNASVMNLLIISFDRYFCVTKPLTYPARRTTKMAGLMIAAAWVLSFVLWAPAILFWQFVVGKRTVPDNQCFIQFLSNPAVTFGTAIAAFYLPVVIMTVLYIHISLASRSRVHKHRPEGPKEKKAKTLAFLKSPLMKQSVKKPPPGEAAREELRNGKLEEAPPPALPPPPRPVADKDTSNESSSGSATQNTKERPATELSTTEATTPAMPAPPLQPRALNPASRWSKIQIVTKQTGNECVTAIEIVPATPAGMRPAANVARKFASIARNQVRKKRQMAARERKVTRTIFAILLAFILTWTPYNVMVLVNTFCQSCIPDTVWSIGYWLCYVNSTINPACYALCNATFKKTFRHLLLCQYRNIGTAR
Procedure: as §1, §2

SMILES | EC50 [1] [nM] | Emax [1] [%] | EC50 [2] [nM] | Emax [2] [%] | M1 % Emax cf. ACh [1] | M4 % Emax cf. ACh [2]
CC(C)OC(=O)N1CCC2(CC(N3CCC4(CC3)CNC(=O)O4)C2)C1 (single isomer, unassigned) [4-4 Isomer 2] | 631 | 52 | 398 | 24 | – | –
CCOC(=O)N1CCC2(CC(N3CCC4(CC3)OC(=O)NC4C3CCC3)C2)C1 (single isomer, unassigned) [4-15 Isomer 1 (racemic)] | 501 | 85 | 158 | 87 | – | –
COC(=O)N1CCC2(CC(N3CCC4(CC3)OC(=O)N3CCCC34)C2)C1 (single isomer, unassigned) [4-45 Isomer 2] | 1000 | 59 | 316 | 36 | – | –
CCCN1C(=O)OC2(CCN(C3CC4(CCN(C(=O)OCC)C4)C3)CC2)C1CC (single isomer, unassigned) [4-23 Isomer 2] | > 20000 | – | > 20000 | – | (5) % | (3) %
CCOC(=O)N1CCC2(CC(N3CCC4(CC3)CN(CC(C)C)C(=O)O4)C2)C1 (single isomer, unassigned) [4-9 Isomer 2] | 1000 | 104 | 631 | 76 | – | –
CCOC(=O)N1CC2(CC(N3CCC4(CC3)OC(=O)N3CCCC34)C2)C1 (stereo not shown) [Example 2-5, ethyl 6-(3′-oxotetrahydro-1H-spiro[piperidine-4,1′-pyrrolo[1,2-c][1,3]oxazol]-1-yl)-2-azaspiro[3.3]heptane-2-carboxylate] | 1000 | 28 | 126 | 34 | – | –
CCOC(=O)N1CCC2(CC(N3CCC4(CC3)CC(=O)NN4C(C)C)C2)C1 (single isomer, unassigned) [6-5 Isomer 2] | 2000 | 56 | > 20000 | 20 | – | –
CCC1N(CC)C(=O)OC12CCN(C1CC3(CCN(C(=O)OC)C3)C1)CC2 (single isomer, unassigned) [4-21 Isomer 2 (racemic)] | 794 | 77 | 200 | 36 | – | –
CCOC(=O)N1CCC2(CC(N3CCC4(CC3)OC(=O)N(CC)C4CC)C2)C1 (single isomer, unassigned) [4-22 Isomer 2] | > 20000 | – | > 20000 | – | (1) % | (2) %
CCOC(=O)N1CC2(CC(N3CCC4(CC3)CNC(=O)C4)C2)C1 [Example 1-1, ethyl 6-(3-oxo-2,8-diazaspiro[4.5]dec-8-yl)-2-azaspiro[3.3]heptane-2-carboxylate] | 316 | 107 | > 20000 | 66 | – | –
CCOC(=O)N1CCC2(CC(N3CCC4(CC3)OC(=O)N(CC3CC3)C4CC)C2)C1 (single isomer, unassigned) [4-25 Isomer 2 (racemic)] | 794 | 73 | 126 | 69 | – | –
CCCN1N(C)C(=O)CC12CCN(C1CC3(CCN(C(=O)OCC)C3)C1)CC2 (single isomer, unassigned) [6-10 Isomer 2] | 1260 | 90 | 39.8 | 109 | – | –
CCCN1C(=O)OC2(CCN(C3CC4(CCN(C(=O)OCC)C4)C3)CC2)C1CC (single isomer, unassigned) [4-23 Isomer 1] | > 20000 | – | 501 | – | (9) % | (33) %
CCOC(=O)N1CCC2(CC(N3CCC4(CC3)OC(=O)N(CC)C4CC)C2)C1 (single isomer, unassigned) [4-22 Isomer 1] | > 20000 | – | > 20000 | – | (13) % | (18) %
CCC1NC(=O)CC12CCN(C1CC3(CCN(C(=O)OC)C3)C1)CC2 (single isomer, unassigned) [3-4 Isomer 1] | 3160 | – | 316 | – | (35) % | (30) %
CCOC(=O)N1CCC2(CC(N3CCC4(CC3)OC(=O)NC4Cc3ccccn3)C2)C1 (single isomer, unassigned) [4-19 Isomer 2 (racemic)] | 200 | 98 | 794 | 72 | – | –
CCOC(=O)N1CCC2(CC(N3CCC4(CC3)CC(=O)NN4Cc3ccccc3)C2)C1 (single isomer, unassigned) [6-6 Isomer 1] | 501 | – | > 20000 | – | (36) % | (10) %

The next lines start with the values.

EC50 [1] [nM] | Emax [1] [%] | EC50 [2] [nM] | Emax [2] [%] | M1 % Emax cf. ACh [1] | M4 % Emax cf. ACh [2] | SMILES
1260 | 63 | 398 | 58 | – | – | CCOC(=O)N1CCC2(CC(N3CCC4(CC3)CN(C(C)C)C(=O)O4)C2)C1 (single isomer, unassigned) [4-8 Isomer 2]
10000 | – | 251 | – | (65) % | (59) % | CCOC(=O)N1CCC2(CC(N3CCC4(CC3)OC(=O)NC4(C)C)C2)C1 (single isomer, unassigned) [4-27 Isomer 1]
794 | – | > 20000 | – | (29) % | (13) % | CCCN1C(=O)OC2(CCN(C3CC4(CCN(C(=O)OCC)C4)C3)CC2)C1(C)C (single isomer, unassigned) [4-37 Isomer 2]
1000 | 57 | 31.6 | 108 | – | – | CCOC(=O)N1CCC2(CC(N3CCC4(CC3)OC(=O)N(CC)C4(C)C)C2)C1 (single isomer, unassigned) [4-35 Isomer 2]
251 | – | 316 | – | (91) % | (37) % | CCOC(=O)N1CCC2(CC(N3CCC4(CC3)CNC(=O)O4)C2)C1 (single isomer, unassigned) [4-3 Isomer 1]
2000 | – | 501 | – | (57) % | (42) % | CCOC(=O)N1CCC2(CC(N3CCC4(CC3)OC(=O)N(C)C4CC)C2)C1 (single isomer, unassigned) [4-20 Isomer 1]
> 20000 | – | > 20000 | – | (16) % | (9) % | CCOC(=O)N1CCC2(CC(N3CCC4(CC3)OC(=O)N(C)C4CC)C2)C1 (single isomer, unassigned) [4-20 Isomer 2]
> 20000 | – | > 20000 | – | (0) % | (1) % | CCOC(=O)N1CCC2(CC(N3CCC4(CC3)OC(=O)NC4CC)C2)C1 (single isomer, unassigned) [4-12 Isomer 2]
3160 | 92 | 1000 | 73 | – | – | CCOC(=O)N1CC2(CC(N3CCC4(CC3)OC(=O)NC4(C)C)C2)C1 [Example 2-3, ethyl 6-(4,4-dimethyl-2-oxo-1-oxa-3,8-diazaspiro[4.5]decan-8-yl)-2-azaspiro[3.3]heptane-2-carboxylate]
> 20000 | 16 | 200 | 52 | – | – | CCOC(=O)N1CCC2(CC(N3CCC4(CC3)OC(=O)N(CC#N)C4(C)C)C2)C1 (single isomer, unassigned) [4-42 Isomer 2]
1260 | 49 | 158 | 63 | – | – | CCOC(=O)N1CCC2(CC(N3CCC4(CC3)OC(=O)NC43CC(F)(F)C3)C2)C1 (single isomer, unassigned) [4-30 Isomer 1]
